# PubChem BioAssay AID276 (DTP/NCI, 2004)
# Where “and” joins values, the source holds several entries; their conditions need not be identical. Equal entries are not always repeated. Toxic doses and inconclusive results are not listed.
# Test system: B6C3F1 mice, Lewis lung carcinoma iv, survival T/C
# Assay: NCI In Vivo Anticancer Drug Screen. Data for tumor model Lewis Lung Carcinoma (intravenous) in B6C3F1 mice
# Conditions: endpoint: median survival time, schedule: Q01DX009 (ip), higher = longer survival
# Procedure, shortened: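 T/C ratio derived from survival of compound-treated versus vehicle-treated mice bearing transplantable tumors.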
# [1] = dose: 3.12 mg/kg/injection, vehicle: saline
# [2] = dose: 6.25 mg/kg/injection, vehicle: saline
# [3] = dose: 12.5 mg/kg/injection, vehicle: saline
# [4] = dose: 25.0 mg/kg/injection, vehicle: saline
# [5] = dose: 50.0 mg/kg/injection, vehicle: saline
# [6] = dose: 100.0 mg/kg/injection, vehicle: saline
# [7] = dose: 200.0 mg/kg/injection, vehicle: saline
# [8] = dose: 12.5 mg/kg/injection, vehicle: saline + Tween-80 + alcohol
# [9] = dose: 25.0 mg/kg/injection, vehicle: saline + Tween-80 + alcohol
# [10] = dose: 50.0 mg/kg/injection, vehicle: saline + Tween-80 + alcohol
# [11] = dose: 6.25 mg/kg/injection, vehicle: saline with Tween-80
# [12] = dose: 12.5 mg/kg/injection, vehicle: saline with Tween-80
# [13] = dose: 25.0 mg/kg/injection, vehicle: saline with Tween-80
# [14] = dose: 50.0 mg/kg/injection, vehicle: saline with Tween-80
# [15] = dose: 100.0 mg/kg/injection, vehicle: saline with Tween-80
# [16] = dose: 12.5 mg/kg/injection, vehicle: Klucel (hydroxypropylcellulose) (HPC)
# [17] = dose: 25.0 mg/kg/injection, vehicle: Klucel (hydroxypropylcellulose) (HPC)
# [18] = dose: 50.0 mg/kg/injection, vehicle: Klucel (hydroxypropylcellulose) (HPC)
# [19] = dose: 1.56 mg/kg/injection, vehicle: suspension in saline
# [20] = dose: 3.12 mg/kg/injection, vehicle: suspension in saline
# [21] = dose: 1.25 mg/kg/injection, vehicle: saline
# [22] = dose: 10.0 mg/kg/injection, vehicle: saline
# [23] = dose: 3.12 mg/kg/injection, vehicle: saline with Tween-80
smiles,measurement,setting,value
CSC(SC)=C1C(=O)NC(=O)NC1=O,T/C,[1],103 % of control
same,T/C,[2],105 % of control
same,T/C,[3],96 % of control
same,T/C,[4],112 % of control
CN(C)c1ccc2c(SCC(=O)OCC(=O)[C@@]3(O)CC[C@H]4[C@@H]5CCC6=CC(=O)C=C[C@]6(C)[C@H]5C(=O)C[C@@]43C)c3ccc(N(C)C)cc3nc2c1,T/C,"dose: 200.0 mg/kg/injection, vehicle: Klucel (hydroxypropylcellulose) (HPC)",94 % of control
same,T/C,"dose: 400.0 mg/kg/injection, vehicle: Klucel (hydroxypropylcellulose) (HPC)",99 % of control
same,T/C,"dose: 800.0 mg/kg/injection, vehicle: Klucel (hydroxypropylcellulose) (HPC)",101 % of control
O=C(O)C1CC(O)CN1 (stereo not given),T/C,[5],98 % of control
same,T/C,[6],91 % of control
same,T/C,[7],91 % of control
same,T/C,"dose: 400.0 mg/kg/injection, vehicle: saline",114 % of control
same,T/C,"dose: 800.0 mg/kg/injection, vehicle: saline",109 % of control
O=C1CCCCC1C(=O)C(F)(F)F (stereo not given),T/C,[8],96 % of control
same,T/C,[9],111 % of control
same,T/C,[10],94 % of control
O=C(O)CC(=O)O.[NH-]CC[NH-].[Pt+2],T/C,"dose: 1.56 mg/kg/injection, vehicle: dextrose",108 % of control
same,T/C,"dose: 3.12 mg/kg/injection, vehicle: dextrose",107 % of control and 120 % of control
same,T/C,"dose: 6.25 mg/kg/injection, vehicle: dextrose",105 % of control and 109 % of control
same,T/C,"dose: 12.5 mg/kg/injection, vehicle: dextrose",102 % of control and 119 % of control
O=[N+]([O-])c1ccc(Sc2ccncn2)c([N+](=O)[O-])c1,T/C,[11],90 % of control
same,T/C,[12],102 % of control
same,T/C,[13],95 % of control
same,T/C,[14],86 % of control
same,T/C,[15],99 % of control
CNC(=O)n1c(N)nc(-c2ccccc2)c1-c1ccccc1,T/C,[11],102 % of control
same,T/C,[12],103 % of control
same,T/C,[13],103 % of control
same,T/C,[14],102 % of control
CC1(C)CC(=O)C(CSC(=O)c2ccccc2)C(=O)C1,T/C,"dose: 3.13 mg/kg/injection, vehicle: Klucel (hydroxypropylcellulose) (HPC)",101 % of control
same,T/C,"dose: 6.25 mg/kg/injection, vehicle: Klucel (hydroxypropylcellulose) (HPC)",95 % of control
same,T/C,[16],95 % of control
same,T/C,[17],103 % of control
same,T/C,[18],103 % of control
CCN(CC)Cc1cc2[nH]c3c4ccc(Cl)cc4ncc3c2cc1OC,T/C,[12],97 % of control
same,T/C,[13],101 % of control
same,T/C,[14],101 % of control
O=C(Nc1nncs1)c1cccs1,T/C,[12],111 % of control
same,T/C,[13],93 % of control
same,T/C,[14],96 % of control
same,T/C,[15],103 % of control
CN(C)N=Nc1ccccc1,T/C,[16],108 % of control
same,T/C,[17],115 % of control
CC[C@H](CC[C@@H](C)C1CC[C@H]2[C@@H]3CC=C4C[C@@H](OP(=O)(N5CC5)N5CC5)CC[C@]4(C)[C@H]3CC[C@]12C)C(C)C (stereo not given in full),T/C,[12],100 % of control
same,T/C,[13],95 % of control
same,T/C,[14],97 % of control
same,T/C,[15],100 % of control
same,T/C,"dose: 200.0 mg/kg/injection, vehicle: saline with Tween-80",95 % of control
[Cl][Pt+2][Cl].[NH-]CC1(C[NH-])CCC1,T/C,[19],96 % of control
same,T/C,[20],105 % of control
CC(C)NC(=O)N(CCCCBr)N=O,T/C,"dose: 12.0 mg/kg/injection, vehicle: Klucel (hydroxypropylcellulose) (HPC)",114 % of control
same,T/C,[17],98 % of control
same,T/C,[18],116 % of control
O=NN(CCCl)C(=O)NC1[C@H](O)CCC[C@@H]1O (stereo not given in full),T/C,"dose: 0.32 mg/kg/injection, vehicle: saline",96 % of control
same,T/C,"dose: 0.63 mg/kg/injection, vehicle: saline",111 % of control
same,T/C,[21],103 % of control and 116 % of control
same,T/C,"dose: 5.0 mg/kg/injection, vehicle: saline",163 % of control and 173 % of control
same,T/C,[22],98 % of control and 118 % of control
C[PH+](C)C.C[PH+](C)C.[Au],T/C,"dose: 0.62 mg/kg/injection, vehicle: saline",97 % of control
same,T/C,[21],102 % of control
same,T/C,"dose: 2.5 mg/kg/injection, vehicle: saline",105 % of control
same,T/C,[22],109 % of control
N=C1CCCS1,T/C,[4],117 % of control
same,T/C,[5],122 % of control
NC(Cn1ccc(=O)c(O)c1)C(=O)O (stereo not given),T/C,[3],94 % of control
same,T/C,[4],98 % of control
same,T/C,[5],102 % of control
same,T/C,[6],94 % of control
same,T/C,[7],94 % of control
CC1=CC(C)(C)Nc2ccc(CSc3ccccc3)cc21,T/C,[8],99 % of control
same,T/C,[9],108 % of control
same,T/C,[10],100 % of control
same,T/C,"dose: 100.0 mg/kg/injection, vehicle: saline + Tween-80 + alcohol",101 % of control
same,T/C,"dose: 200.0 mg/kg/injection, vehicle: saline + Tween-80 + alcohol",108 % of control
same,T/C,"dose: 400.0 mg/kg/injection, vehicle: saline + Tween-80 + alcohol",108 % of control
CCN(CC)CC[n+]1ccc2c(C)c3[nH]c4ccc(O)cc4c3c(C)c2c1,T/C,"dose: 1.56 mg/kg/injection, vehicle: saline",95 % of control
same,T/C,[19],106 % of control
same,T/C,[1],100 % of control
same,T/C,[20],100 % of control
same,T/C,[2],106 % of control
same,T/C,"dose: 6.25 mg/kg/injection, vehicle: suspension in saline",116 % of control
same,T/C,[3],98 % of control
CCc1ccc(C2=C(O)C(=O)C(c3ccc(CC)cc3)=C(O)C2=O)cc1,T/C,[23],111 % of control
same,T/C,"dose: 6.0 mg/kg/injection, vehicle: saline with Tween-80",105 % of control
same,T/C,[11],111 % of control
same,T/C,"dose: 12.0 mg/kg/injection, vehicle: saline with Tween-80",103 % of control
same,T/C,[12],117 % of control
same,T/C,[13],114 % of control and 88 % of control
same,T/C,[14],103 % of control
same,T/C,[15],101 % of control
[Cl][Pt][Cl].[NH-]C(CO)C(=O)O (stereo not given),T/C,"dose: 6.25 mg/kg/injection, vehicle: water",101 % of control
same,T/C,"dose: 12.5 mg/kg/injection, vehicle: water",111 % of control
same,T/C,"dose: 25.0 mg/kg/injection, vehicle: water",105 % of control
same,T/C,"dose: 50.0 mg/kg/injection, vehicle: water",110 % of control
O=C1N(CC2CO2)CCN1CC1CO1 (stereo not given),T/C,[3],114 % of control
same,T/C,[4],112 % of control
same,T/C,[5],114 % of control
COc1ccc(S(=O)(=O)N=N/C=C2\C=CC=CN2O)cc1OC,T/C,[23],92 % of control
same,T/C,[11],100 % of control
same,T/C,[12],98 % of control
same,T/C,[13],93 % of control
same,T/C,[14],106 % of control
Cc1ccc2c(ccc(/C=C/c3ccc(O)c4ncccc34)[n+]2C)c1,T/C,[3],100 % of control
same,T/C,[4],86 % of control
CC(C)=CC(=O)OC1C2C(C)=CC(=O)C(O)C2(C)C2C3(O)OCC24C(CC(=O)OC14)C(C)C3O (stereo not given),T/C,"dose: 0.25 mg/kg/injection, vehicle: distilled water + Tween-80",107 % of control
same,T/C,"dose: 0.5 mg/kg/injection, vehicle: distilled water + Tween-80",98 % of control
same,T/C,"dose: 1.0 mg/kg/injection, vehicle: distilled water + Tween-80",102 % of control
same,T/C,"dose: 2.0 mg/kg/injection, vehicle: distilled water + Tween-80",98 % of control
C[C@@H]1C[C@@H]([C@H](O)CC2CC(=O)NC(=O)C2)C(=O)[C@@H](C)C1,T/C,[2],100 % of control
same,T/C,[3],105 % of control
same,T/C,[4],102 % of control
